Tests used:
NCI-H1975 = assay: Antiproliferative activity against human NCI-H1975 cells expressing EGFR T790M mutant after 72 hrs by SRB assay; assay type: functional, cell-based; settings: NCI-H1975, 72 h
[1] = molecular target: Epidermal growth factor receptor (Homo sapiens, UniProt P00533); assay: Inhibition of wild type EGFR (unknown origin) expressed in baculovirus expression system using poly (Glu, Tyr) 4:1 as substrate after 60 mins by ELISA
A-431 = assay: Antiproliferative activity against human A431 cells after 72 hrs by SRB assay; assay type: functional, cell-based; settings: A-431, 72 h
[2] = molecular target: Epidermal growth factor receptor (Homo sapiens, UniProt P00533, L858M/T790M); assay: Inhibition of EGFR T790M/[…] double mutant (unknown origin) expressed in baculovirus expression system using poly (Glu, Tyr) 4:1 as substrate after 60 mins by ELISA
Chain of Epidermal growth factor receptor (Homo sapiens, UniProt P00533, L858M/T790M) (P00533 25-1210 T790M/L858M limits assumed): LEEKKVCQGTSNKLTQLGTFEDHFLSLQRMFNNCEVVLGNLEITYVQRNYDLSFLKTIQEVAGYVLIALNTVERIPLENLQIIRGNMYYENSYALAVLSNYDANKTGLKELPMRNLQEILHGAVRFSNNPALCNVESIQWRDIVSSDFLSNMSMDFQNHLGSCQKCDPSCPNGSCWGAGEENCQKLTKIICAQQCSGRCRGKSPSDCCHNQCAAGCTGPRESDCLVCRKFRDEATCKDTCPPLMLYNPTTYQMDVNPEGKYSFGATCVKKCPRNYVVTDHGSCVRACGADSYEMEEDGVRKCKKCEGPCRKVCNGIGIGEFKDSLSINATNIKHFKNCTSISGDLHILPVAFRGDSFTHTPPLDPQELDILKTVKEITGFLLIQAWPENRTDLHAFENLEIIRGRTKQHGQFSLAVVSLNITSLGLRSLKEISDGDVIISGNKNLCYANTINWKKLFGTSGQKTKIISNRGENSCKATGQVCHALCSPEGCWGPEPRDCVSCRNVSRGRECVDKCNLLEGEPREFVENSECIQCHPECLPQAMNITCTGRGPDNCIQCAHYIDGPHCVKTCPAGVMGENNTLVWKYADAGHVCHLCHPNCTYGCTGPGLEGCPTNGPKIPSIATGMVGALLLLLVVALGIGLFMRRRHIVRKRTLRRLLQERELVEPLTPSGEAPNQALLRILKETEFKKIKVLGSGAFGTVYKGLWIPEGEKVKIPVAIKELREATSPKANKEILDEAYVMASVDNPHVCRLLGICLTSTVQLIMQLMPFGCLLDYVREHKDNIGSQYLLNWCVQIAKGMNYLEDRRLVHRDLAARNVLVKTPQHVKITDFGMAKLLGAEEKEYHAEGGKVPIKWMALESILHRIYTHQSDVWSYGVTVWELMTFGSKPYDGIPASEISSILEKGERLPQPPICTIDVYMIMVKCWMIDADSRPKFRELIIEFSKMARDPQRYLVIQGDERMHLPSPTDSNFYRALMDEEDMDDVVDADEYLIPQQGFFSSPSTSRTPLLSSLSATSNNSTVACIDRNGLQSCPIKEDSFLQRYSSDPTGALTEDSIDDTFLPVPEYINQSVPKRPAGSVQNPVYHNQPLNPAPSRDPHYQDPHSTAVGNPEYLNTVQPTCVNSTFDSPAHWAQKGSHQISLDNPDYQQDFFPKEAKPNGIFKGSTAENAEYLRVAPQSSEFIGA

Chain of Epidermal growth factor receptor (Homo sapiens, UniProt P00533) (P00533 whole entry): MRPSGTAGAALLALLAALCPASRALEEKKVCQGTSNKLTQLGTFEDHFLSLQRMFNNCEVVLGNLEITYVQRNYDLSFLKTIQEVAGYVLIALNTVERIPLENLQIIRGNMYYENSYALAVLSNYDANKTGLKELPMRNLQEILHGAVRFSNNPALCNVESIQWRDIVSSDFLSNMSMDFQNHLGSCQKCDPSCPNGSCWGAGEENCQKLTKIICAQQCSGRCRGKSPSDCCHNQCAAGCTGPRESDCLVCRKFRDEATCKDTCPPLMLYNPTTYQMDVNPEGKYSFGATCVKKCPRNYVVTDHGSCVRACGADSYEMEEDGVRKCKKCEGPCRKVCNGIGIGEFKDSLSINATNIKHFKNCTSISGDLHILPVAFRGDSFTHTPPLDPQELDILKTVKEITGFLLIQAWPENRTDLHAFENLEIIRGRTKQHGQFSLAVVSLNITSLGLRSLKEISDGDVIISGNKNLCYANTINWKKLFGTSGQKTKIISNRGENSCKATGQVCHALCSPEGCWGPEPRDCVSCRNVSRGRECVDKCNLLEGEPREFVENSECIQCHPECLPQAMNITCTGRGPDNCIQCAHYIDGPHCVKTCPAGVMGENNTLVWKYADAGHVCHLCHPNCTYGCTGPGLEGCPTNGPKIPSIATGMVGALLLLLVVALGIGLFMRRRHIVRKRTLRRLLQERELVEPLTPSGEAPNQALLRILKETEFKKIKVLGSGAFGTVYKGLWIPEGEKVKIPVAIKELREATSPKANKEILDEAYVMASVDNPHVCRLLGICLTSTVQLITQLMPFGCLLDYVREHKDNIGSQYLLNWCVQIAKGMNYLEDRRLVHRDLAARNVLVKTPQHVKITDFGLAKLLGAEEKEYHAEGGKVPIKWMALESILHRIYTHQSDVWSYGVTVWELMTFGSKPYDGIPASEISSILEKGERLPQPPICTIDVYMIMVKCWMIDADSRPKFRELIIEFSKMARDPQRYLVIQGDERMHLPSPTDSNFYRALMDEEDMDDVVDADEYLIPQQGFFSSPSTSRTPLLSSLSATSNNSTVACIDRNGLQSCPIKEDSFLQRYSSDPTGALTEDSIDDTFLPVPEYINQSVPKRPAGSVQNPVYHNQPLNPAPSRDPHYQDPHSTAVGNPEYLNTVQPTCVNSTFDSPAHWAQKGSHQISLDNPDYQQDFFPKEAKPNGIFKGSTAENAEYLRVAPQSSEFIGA

Structure (SMILES)	IC50 (NCI-H1975) [nM]	IC50 [1] [nM]	IC50 (A-431) [nM]	IC50 [2] [nM]
O=C(Nc1cc2c(Nc3ccc(F)c(Cl)c3)ncnc2cc1O[C@H]1CCOC1)N1CCC(F)(F)CC1	32300	859	1860	5310
O=C(NCCN1CCCCC1)Nc1cc2c(Nc3ccc(F)c(Cl)c3)ncnc2cc1O[C@H]1CCOC1	3200	165	116	447
COCCCNC(=O)Nc1cc2c(Nc3ccc(F)c(Cl)c3)ncnc2cc1O[C@H]1CCOC1	22700	197	4100	1660
CCN(CC)CCN(C)C(=O)Nc1cc2c(Nc3ccc(F)c(Cl)c3)ncnc2cc1O[C@H]1CCOC1	8300	505	481	392
O=C(Nc1cc2c(Nc3ccc(F)c(Cl)c3)ncnc2cc1O[C@H]1CCOC1)N1CC(O)C1	32200	543	1930	1420
O=C(Nc1cc2c(Nc3ccc(F)c(Cl)c3)ncnc2cc1O[C@H]1CCOC1)N1CCN(CCO)CC1	18200	331	1130	4210
COCCNC(=O)Nc1cc2c(Nc3ccc(F)c(Cl)c3)ncnc2cc1O[C@H]1CCOC1	8300	479	387	3560
O=C(NCCO)Nc1cc2c(Nc3ccc(F)c(Cl)c3)ncnc2cc1O[C@H]1CCOC1	17600	–	598	–
O=C(Nc1cc2c(Nc3ccc(F)c(Cl)c3)ncnc2cc1O[C@H]1CCOC1)N1CCC(F)CC1	33300	699	3040	1820
CN(C)CCCN(C)C(=O)Nc1cc2c(Nc3ccc(F)c(Cl)c3)ncnc2cc1O[C@H]1CCOC1	3300	464	200	5260
O=C(Nc1cc2c(Nc3ccc(F)c(Cl)c3)ncnc2cc1O[C@H]1CCOC1)N1CCC(CCO)CC1	25300	304	759	2940
CS(=O)(=O)CCNC(=O)Nc1cc2c(Nc3ccc(F)c(Cl)c3)ncnc2cc1O[C@H]1CCOC1	35200	41	1570	672
O=C(Nc1cc2c(Nc3ccc(F)c(Cl)c3)ncnc2cc1O[C@H]1CCOC1)N1CCC(N2CCCC2)CC1	9600	265	317	1590
O=C(Nc1cc2c(Nc3ccc(F)c(Cl)c3)ncnc2cc1O[C@H]1CCOC1)N1CCC2(CC1)OCCO2	32200	1720	2180	5190
